Our source for the T/C values is PubChem BioAssay AID248 (DTP/NCI, 2004).

Several values for one entry are separate records, joined by “and”; a condition that tells them apart may be missing. Identical values can stand only once. Inconclusive results and toxic doses are left out.

The subject of the experiment is L1210 leukemia ip in BDF1 mice, survival T/C. The experiment can be described thus: NCI In Vivo Anticancer Drug Screen. Data for tumor model L1210 Leukemia (intraperitoneal) in B6D2F1 (BDF1) mice. The note with it: endpoint: mean survival time, higher = longer survival. A digest of the protocol:
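Ratio derived from survival: compound-dosed mice over vehicle-dosed mice, all bearing a transplantable tumor.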

[1] abbreviates: dose: 25.0 mg/kg/injection, schedule: Q01DX009 (ip), vehicle: saline.
The mark [2] stands for this setting: dose: 100.0 mg/kg/injection, schedule: Q04DX003 (ip), vehicle: saline.
[3] abbreviates: dose: 100.0 mg/kg/injection, schedule: Q04DX002 (ip), vehicle: Klucel (hydroxypropylcellulose) (HPC).
Where [4] appears, read: dose: 100.0 mg/kg/injection, schedule: Q04DX003 (ip), vehicle: saline with Tween-80.
The mark [5] stands for this setting: dose: 200.0 mg/kg/injection, schedule: Q04DX002 (ip), vehicle: Klucel (hydroxypropylcellulose) (HPC).
The mark [6] stands for this setting: dose: 200.0 mg/kg/injection, schedule: Q04DX003 (ip), vehicle: saline with Tween-80.
The mark [7] stands for this setting: dose: 400.0 mg/kg/injection, schedule: Q04DX002 (ip), vehicle: Klucel (hydroxypropylcellulose) (HPC).
Where [8] appears, read: dose: 100.0 mg/kg/injection, schedule: Q04DX003 (ip), vehicle: Klucel (hydroxypropylcellulose) (HPC).
Setting [9] is: dose: 200.0 mg/kg/injection, schedule: Q04DX003 (ip), vehicle: Klucel (hydroxypropylcellulose) (HPC).
Setting [10] is: dose: 400.0 mg/kg/injection, schedule: Q04DX003 (ip), vehicle: Klucel (hydroxypropylcellulose) (HPC).
[11] abbreviates: dose: 400.0 mg/kg/injection, schedule: Q04DX003 (ip), vehicle: saline with Tween-80.

Take `CC[n+]1ccc(Nc2ccc(NC(=O)c3ccc(Nc4cc[n+](CC)c5ccc([N+](=O)[O-])cc45)cc3)cc2)cc1`: the T/C (dose: 4.13 mg/kg/injection, schedule: Q04DX003 (ip), vehicle: saline sonified) is 114 % of control; the T/C (dose: 4.5 mg/kg/injection, schedule: Q01DX009 (ip), vehicle: Klucel (hydroxypropylcellulose) (HPC)) was 117 % of control; the T/C (dose: 6.25 mg/kg/injection, schedule: Q04DX003 (ip), vehicle: Klucel (hydroxypropylcellulose) (HPC)) is 108 % of control; the T/C (dose: 6.25 mg/kg/injection, schedule: Q04DX003 (ip), vehicle: saline sonified) was 117 % of control; the T/C (dose: 9.38 mg/kg/injection, schedule: Q04DX003 (ip), vehicle: saline sonified) was 115 % of control; the T/C (dose: 10.44 mg/kg/injection, schedule: Q01DX009 (ip), vehicle: saline with Tween-80) was 117 % of control. The T/C was 115 % of control (dose: 11.0 mg/kg/injection, schedule: Q01DX009 (ip), vehicle: saline); 100 % of control (dose: 12.5 mg/kg/injection, schedule: Q01DX001 (ip), vehicle: Klucel (hydroxypropylcellulose) (HPC)); 112 % of control (dose: 12.5 mg/kg/injection, schedule: Q04DX003 (ip), vehicle: Klucel (hydroxypropylcellulose) (HPC)); 175 % of control (dose: 16.5 mg/kg/injection, schedule: Q01DX009 (ip), vehicle: Klucel (hydroxypropylcellulose) (HPC)); 102 % of control (dose: 25.0 mg/kg/injection, schedule: Q01DX001 (ip), vehicle: Klucel (hydroxypropylcellulose) (HPC)); 160 % of control (dose: 25.0 mg/kg/injection, schedule: Q01DX009 (ip), vehicle: Klucel (hydroxypropylcellulose) (HPC)). Further, the T/C (dose: 25.0 mg/kg/injection, schedule: Q01DX009 (ip), vehicle: saline sonified) is 230 % of control; the T/C under setting [1] is 160 % of control; the T/C (dose: 25.0 mg/kg/injection, schedule: Q04DX003 (ip), vehicle: Klucel (hydroxypropylcellulose) (HPC)) was 122 % of control; the T/C (dose: 37.5 mg/kg/injection, schedule: Q01DX009 (ip), vehicle: saline) was 184 % of control.
Turning to `CN(C)CCOC(=O)COc1ccc(Cl)cc1`, the T/C under setting [1] is 96 % of control; the T/C (dose: 25.0 mg/kg/injection, schedule: Q04DX003 (ip), vehicle: saline) is 93 % of control; the T/C (dose: 50.0 mg/kg/injection, schedule: Q01DX009 (ip), vehicle: saline) was 100 % of control; the T/C (dose: 50.0 mg/kg/injection, schedule: Q04DX003 (ip), vehicle: saline) is 98 % of control; the T/C (dose: 100.0 mg/kg/injection, schedule: Q01DX009 (ip), vehicle: saline) is 97 % of control; the T/C under setting [2] was 90 % of control. The T/C is, setting by setting: (dose: 200.0 mg/kg/injection, schedule: Q01DX009 (ip), vehicle: saline) 96 % of control; (dose: 200.0 mg/kg/injection, schedule: Q04DX003 (ip), vehicle: saline) 114 % of control; (dose: 400.0 mg/kg/injection, schedule: Q01DX009 (ip), vehicle: saline) 96 % of control; (dose: 400.0 mg/kg/injection, schedule: Q04DX003 (ip), vehicle: saline) 101 % of control.
For the compound `NC(CCl)CCl`, the T/C reads like this: (dose: 12.5 mg/kg/injection, schedule: Q01DX Z (ip), vehicle: other) 92 % of control; (dose: 25.0 mg/kg/injection, schedule: Q01DX Z (ip), vehicle: other) 100 % of control; (dose: 100.0 mg/kg/injection, schedule: Q01DX Z (ip), vehicle: other) 94 % of control.
For the compound `COC1OC2COCOC2C(OS(=O)(=O)c2ccc(C)cc2)C1OS(=O)(=O)c1ccc(C)cc1` (configuration not stated), the T/C is, setting by setting: under setting [3], 100 % of control; under setting [4], 89 % of control; under setting [5], 95 % of control; under setting [6], 86 % of control; under setting [7], 92 % of control.
Turning to `O=C(Nc1ccc(Cl)c(Cl)c1)OC1C=CS(=O)(=O)C1` (configuration not stated), the T/C reads like this: under setting [8], 104 % of control; under setting [9], 104 % of control; under setting [10], 96 % of control.
On to `C[N+](C)(C)Cc1ccc([N+](=O)[O-])cc1`, for which the T/C (dose: 2.2 mg/kg/injection, schedule: Q01DX001 (ip), vehicle: saline) was 101 % of control; the T/C (dose: 3.3 mg/kg/injection, schedule: Q01DX001 (ip), vehicle: saline) was 97 % of control; the T/C (dose: 5.0 mg/kg/injection, schedule: Q01DX001 (ip), vehicle: saline) was 94 % of control; the T/C (dose: 7.5 mg/kg/injection, schedule: Q01DX001 (ip), vehicle: saline) was 101 % of control.
In the case of `CCCCCCCCCCN1CCC(N2CCCCC2)CC1`, the T/C runs as follows: (dose: 25.0 mg/kg/injection, schedule: Q04DX002 (ip), vehicle: saline) 102 % of control; (dose: 50.0 mg/kg/injection, schedule: Q04DX002 (ip), vehicle: saline) 102 % of control; (dose: 100.0 mg/kg/injection, schedule: Q04DX002 (ip), vehicle: saline) 98 % of control and 91 % of control.
For `C1=Nc2ccccc2/C1=C/c1cccc2ccccc12`, the T/C reads like this: (dose: 100.0 mg/kg/injection, schedule: Q04DX002 (ip), vehicle: saline with Tween-80) 98 % of control; (dose: 200.0 mg/kg/injection, schedule: Q04DX002 (ip), vehicle: saline with Tween-80) 101 % of control.
Consider `COc1ccc(Cl)cc1NC(=O)Nc1ccc(S(N)(=O)=O)cc1`, for which the T/C (dose: 100.0 mg/kg/injection, schedule: Q01DX009 (ip), vehicle: Klucel (hydroxypropylcellulose) (HPC)) is 102 % of control; the T/C (dose: 200.0 mg/kg/injection, schedule: Q01DX009 (ip), vehicle: Klucel (hydroxypropylcellulose) (HPC)) is 93 % of control; the T/C (dose: 400.0 mg/kg/injection, schedule: Q01DX009 (ip), vehicle: Klucel (hydroxypropylcellulose) (HPC)) is 94 % of control.
As to `CCOc1ccc(OC(=O)c2ccc(O)cc2)cc1`, the T/C runs as follows: under setting [8], 106 % of control; under setting [9], 101 % of control; under setting [10], 96 % of control.
Regarding `COC(=O)NC1CC(OC(=O)c2ccc(C)cc2)C(COC(=O)c2ccc(C)cc2)O1` (configuration not stated), the T/C reads like this: (dose: 50.0 mg/kg/injection, schedule: Q04DX003 (ip), vehicle: saline with Tween-80) 96 % of control; (dose: 66.0 mg/kg/injection, schedule: Q04DX003 (ip), vehicle: saline) 94 % of control; under setting [4], 97 % of control; under setting [2], 100 % of control; (dose: 150.0 mg/kg/injection, schedule: Q04DX003 (ip), vehicle: saline) 95 % of control; under setting [6], 100 % of control. For the same compound, the T/C is 95 % of control (dose: 225.0 mg/kg/injection, schedule: Q04DX003 (ip), vehicle: saline); 103 % of control (dose: 337.0 mg/kg/injection, schedule: Q04DX003 (ip), vehicle: saline); 96 % of control under setting [11].
Regarding `COc1ccc(C(=O)Nc2ccccc2SC)cc1`, the T/C runs as follows: under setting [3], 99 % of control; under setting [5], 96 % of control; under setting [7], 102 % of control.
Consider `CC1CCC2CON(C(C)(C)C)C2C1` (configuration not stated), for which the T/C is 106 % of control (dose: 50.0 mg/kg/injection, schedule: Q01DX009 (ip), vehicle: saline with Tween-80); 107 % of control (dose: 100.0 mg/kg/injection, schedule: Q01DX009 (ip), vehicle: saline with Tween-80); 103 % of control under setting [4]; 97 % of control and 101 % of control under setting [6]; 94 % of control under setting [11].
Regarding `CCOC(=O)/C(O)=C\c1nc(OCC)nc(OCC)c1[N+](=O)[O-]`, the T/C by setting is: (dose: 93.8 mg/kg/injection, schedule: Q04DX002 (ip), vehicle: Klucel (hydroxypropylcellulose) (HPC)) 95 % of control; (dose: 187.5 mg/kg/injection, schedule: Q04DX002 (ip), vehicle: Klucel (hydroxypropylcellulose) (HPC)) 95 % of control; (dose: 375.0 mg/kg/injection, schedule: Q04DX002 (ip), vehicle: Klucel (hydroxypropylcellulose) (HPC)) 100 % of control.
